Test results as given in patent publication US12252472B1, “Barbituric acid derivatives, their preparation and use thereof as leukocyte transmigration inhibitors and for treating inflammatory diseases, autoimmune diseases and cancer” (BAR-ILAN UNIVERSITY, priority 2017, dated 2025).

Experiments:
[1] = system: primary human monocytes on TNF-alpha-activated HUVECs; assay: Shear flow assay: monocyte adhesion and transmigration on TNFα-activated HUVECs; format: cell-based; settings: for Monocyte adhesion / Level of Transmigration Blockage (%) / inhibition at 30 µM: 30 μM; for Monocyte adhesion: flow 0.05 Pa for 30 minutes; for Level of Transmigration Blockage (%): monocytes on TNF-activated HUVECs under flow 0.05 Pa; for inhibition at 30 µM: Table 2, read-out: monocyte-rolling inhibition
Description: A flow assay that allows detailed analysis of individual leukocyte interactions with endothelial cells (ECs), described in Bradfield et al. (Bradfield et al., 2016, PloS One, July 21; 11(7); Bradfield et al., 2007, Blood. October 1; 110(7):2545-55) was used for evaluation of the biological effects of the compounds according to the invention. This method allows the determination of the possible effects of the compounds on three major phases in leukocyte migration: the capture of free non-bound leukocytes by endothelium, migration of leukocytes on the endothelium surface, and transendothelial migration (transmigration) of human leukocytes through the HUVECs layer. Post transmigrational events can also be monitored by tracking individual leukocytes. […] Human umbilical vein endothelial cells (HUVECs) were cultivated in the plastic channel of the flow chamber, and human leukocyte were flowed over them using a calibrated pump, allowing monocyte capture, adhesion and migration to be monitored.
Human umbilical vein endothelial cells (HUVEC) were isolated by collagenase treatment of umbilical veins as previously described (Wall, R. T., et al., Factors influencing endothelial cell proliferation in vitro. J Cell Physiol, 1978. 96(2): p. 203-13) and maintained in M199 containing 20% fetal calf serum (FCS), 15 μg/mL endothelial cell growth supplement (Upstate Biotechnology, Lake Placid, NY), 100 μg/mL heparin, 50 μM hydrocortisone, and 10 μg/mL vitamin C. Cells were cultured up to a maximum of passage 5.
Peripheral blood mononuclear cells (PBMCs) were first isolated from blood of healthy donors followed by monocyte purification using a monocyte isolation kit (Miltenyi Biotec, Bergisch Gladbach, Germany). Purity and activity of monocytes were controlled by flow cytometry by labelling with anti-CD14 and anti-CD62L. Only populations of 90% or more double positive cells were used.
(§1) Flow assays were conducted as described in a previous study (Bradfield, P. F., et al., JAM-C regulates unidirectional monocyte transendothelial migration in inflammation. Blood, 2007. 110(7): p. 2545-55). HUVECs were cultured at 1×10^5 cells/slide on Ibidi 6-chamber slides (80606; Ibidi) before treatment with TNFα (500 U/mL) for 6-10 hours. An individual chamber outlet was then attached to a calibrated pump (74 900; Cole Partner, Vernon Hills, IL) and flow was generated by perfusing wash buffer (M199 with 0.15% BSA) or a monocyte suspension (2.5×10^6 cells/mL) over the HUVEC monolayer. The flow rate was representative of shear rates in small venules (0.05 Pa). Observations made using phase-contrast microscopy (Model: Axiovert 100; Objective: 20×/0.3 NA air; Carl Zeiss) were recorded using a high-resolution camera (D70; Nikon, Zurich, Switzerland). Individual images were recorded every 30 seconds with Nikon capture software (v4.2) and compiled into movie sequences using Adobe Photoshop (CS6) and Image J (v1.5d), allowing analysis of individual monocytes over large areas. The tested compounds, e.g. compounds of the general Formula (I), were maintained at the specified concentration in all wash buffers throughout the course of the experiment. The compounds were preincubated separately on both HUVECs and monocytes 15 minutes prior to flow co-culture. HUVEC monolayers were washed for 10 minutes prior to a compound wash-in step to allow for this preincubation period. The monocyte suspension was then perfused over HUVECs for 4 minutes followed by 20 to 60 minutes with wash buffer. Time-lapse recording was started upon monocyte first-contact with the monolayer. Monocyte adhesion data are presented as the total number of monocytes per unit field. Transmigration events are presented as a percentage of total monocytes captured from flow per unit field. All experiments were carried out using quadruplicate fields and are presented as a mean value (±SEM).
A timeline is shown to represent the positioning and timing of an individual monocyte during movie analysis (marked ‘Timeline’). […]

[2] = system: B cells; assay: B-lymphocyte adhesion and transmigration, MesenFlow assay; format: cell-based; settings: 30 μg/ml
Description: as §1, with “HUVEC monolayers were washed for 10 minutes prior to a compound wash-in step to allow for this preincubation period. The monocyte suspension was then perfused over HUVECs for 4 minutes followed by 20 to 60 minutes with wash buffer. Time-lapse recording was started upon monocyte first-contact with the monolayer. Monocyte adhesion data are presented as the total number of monocytes per unit field. Transmigration events are presented as a percentage of total monocytes captured from flow per unit field. All experiments were carried out using quadruplicate fields and are presented as a mean value (±SEM).” left out

Molecule	Monocyte adhesion [1]	Level of Transmigration Blockage (%) [1] [%]	inhibition at 30 µM ([1]; Homo sapiens, HUVEC) [%]	other results
COC(=O)c1cccc(COc2cccc(C=C3C(=O)NC(=O)NC3=O)c2)c1 [Formula 9, Methyl 3-((3-((2,4,6-trioxo-tetrahydropyrimidin-5(2H)-ylidene)methyl)phenoxy)methyl) benzoate]	unaffected	98	> 90	–
Tysabri®: an antibody against alpha 4 integrin, used as a positive control [reference compound]	–	–	–	number of transmigrated B cells [2]: no net effect
COC(=O)c1ccc(COc2c(C)cc(C=C3C(=O)NC(=O)NC3=O)cc2C)cc1 [Formula 4, Methyl 4-((2,6-dimethyl-4-((2,4,6-trioxotetrahydro-pyrimidin-5(2H)ylidene)methyl)phenoxy)methyl) benzoate]	–	75	–	–
COC(=O)c1ccc(COc2cccc(C=C3C(=O)NC(=O)NC3=O)c2)cc1 [Formula 1, Methyl 4-((3-((2,4,6-trioxo-tetrahydropyrimidin-5(2H)-ylidene)methyl)phenoxy)methyl) benzoate]	–	81	–	–
O=C1NC(=O)C(=Cc2c3ccccc3cc3ccccc23)C(=O)N1 [Formula 10, 5-(anthracen-9-ylmethylene)pyrimidine-2,4,6(1H,3H,5H)-trione]	unaffected	92	> 90	IC50 ([1]; Homo sapiens, HUVEC, flow 0.05 Pa, n=3): 300 nM; Emax ([1]; Homo sapiens, HUVEC, monocyte transmigration inhibition, read-out: maximal efficacy): 40%; concentration below which not active on monocyte transmigration ([1]; dose response, 100 μM to 3 nM): below 30 nM; monocyte transmigration ([1]; dose response, concentrations higher than 30 nM): partial effect; monocyte transmigration ([1]; dose response, high concentrations (100 μM)): Total blocking; time of the maximal effect ([1]; monocyte transmigration, read at 10, 15, 20 and 25 minutes): 25 min
O=C1NC(=O)C(=Cc2ccccc2OCc2cccc(C(=O)O)c2)C(=O)N1 [Formula 6, 3-((2-((2,4,6-trioxo-tetrahydropyrimidin-5(6H)-ylidene)methyl)phenoxy)methyl)benzoic acid]	–	78	–	–
